Here are results for 23 compounds from US7105562B2, “Geometrically restricted 3-cyclopentylidene-1,3-dihydroindol-2-ones as potent protein tyrosine kinase inhibitors” (Sugen, Inc., priority 2003, dated 2006).

A value given as a limit tells only on which side of the number the result lay.

A word on the IC50: it is the concentration that inhibits the measured activity by half.

FGFR1, sequence (P11362 22-822, species assumed): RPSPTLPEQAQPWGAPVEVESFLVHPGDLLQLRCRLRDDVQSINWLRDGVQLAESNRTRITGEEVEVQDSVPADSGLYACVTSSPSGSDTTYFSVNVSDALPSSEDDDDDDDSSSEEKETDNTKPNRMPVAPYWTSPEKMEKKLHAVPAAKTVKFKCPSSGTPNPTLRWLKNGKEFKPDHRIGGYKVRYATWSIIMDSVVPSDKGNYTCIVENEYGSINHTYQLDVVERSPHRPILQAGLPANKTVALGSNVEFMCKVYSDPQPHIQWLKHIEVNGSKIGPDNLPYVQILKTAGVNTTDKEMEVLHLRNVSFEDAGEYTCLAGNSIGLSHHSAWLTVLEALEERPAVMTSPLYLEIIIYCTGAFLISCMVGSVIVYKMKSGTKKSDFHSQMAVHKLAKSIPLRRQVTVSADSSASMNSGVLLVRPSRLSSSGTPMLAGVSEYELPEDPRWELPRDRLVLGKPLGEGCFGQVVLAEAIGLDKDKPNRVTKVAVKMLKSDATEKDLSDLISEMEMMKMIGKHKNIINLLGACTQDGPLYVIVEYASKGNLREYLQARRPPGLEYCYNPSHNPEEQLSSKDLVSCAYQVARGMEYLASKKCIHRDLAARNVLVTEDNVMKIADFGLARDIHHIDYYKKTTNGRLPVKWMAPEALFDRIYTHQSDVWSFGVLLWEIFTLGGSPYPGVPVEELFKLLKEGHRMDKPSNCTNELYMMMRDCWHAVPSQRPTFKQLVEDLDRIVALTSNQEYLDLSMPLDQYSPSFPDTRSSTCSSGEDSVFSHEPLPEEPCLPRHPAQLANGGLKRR

This assay addresses FGFR1 (Homo sapiens, UniProt P11362). The assay is described as follows: FGFR1 Bioassay (in vitro kinase activity, ELISA). In kind it is biochemical. The settings on record: purified GST-FGFR1, poly(Glu-Tyr) substrate, read-out: FGFR IC50. As for the experimental part: This assay is used to measure the in vitro kinase activity of FGF1-R in an ELISA assay.
1. Costar 96-well ELISA plates (Corning Catalog # 3369).
2. Poly(Glu-Tyr) (Sigma Catalog # P0275).
4. 50 mM Hepes Buffer Solution.
5. Blocking Buffer (5% BSA/PBS).
6. Purified GST-FGFR1 (SUGEN, Inc.)
7. Kinase Dilution Buffer.
Mix 500 μl 1M Hepes (GIBCO), 20 μl 5% BSA/PBS, 10 μl 100 mM sodium orthovanadate and 50 μl 5M NaCl.
9. ATP/MnCl2 phosphorylation mix: mix 20 μL ATP, 400 μL 1 M MnCl2 and 9.56 ml dH2O.
10. NUNC 96-well V bottom polypropylene plates (Applied Scientific Catalog # AS-72092).
Add 500 μL TWEEN to 1 liter TBS.
13. Rabbit polyclonal anti-phosphotyrosine serum (SUGEN, Inc.).
14. Goat anti-rabbit IgG peroxidase conjugate (Biosource, Catalog # ALI0404).
1. Coat Costar 96 well ELISA plates with 1 μg per well Poly(Glu-Tyr) in 100 μl PBS. Store overnight at 4° C.
2. Wash coated plates once with PBS.
3. Add 150 μL of 5% BSA/PBS Blocking Buffer to each well. Incubate, with shaking, for 1 hr at room temperature.
4. Wash plate 2× with PBS, then once with 50 mM Hepes. Pat plates on a paper towel to remove excess liquid and bubbles.
5. Add 25 μL of 0.4 mM test compound in 4% DMSO or 4% DMSO alone (controls) to plate.
6. Dilute purified GST-FGFR1 in Kinase Dilution Buffer (5 ng kinase/50 ul KDB/well).
7. Add 50 μL of diluted kinase to each well.
8. Start kinase reaction by adding 25 μl/well of freshly prepared ATP/Mn++ (0.4 ml 1M MnCl2, 40 μL 10 mM ATP, 9.56 ml dH2O), freshly prepared).
9. Stop reaction with 25 μL of 0.5M EDTA.
10. Wash plate 4× with fresh TBST.
11. Make up Antibody Dilution Buffer: For 50 ml, mix 5 ml of 5% BSA, 250 μl of 5% milk and 50 μl of 100 mM sodium vanadate, bring to final volume with 0.05% TBST.
12. Add 100 μl per well of anti-phosphotyrosine (1:10000 dilution in ADB). Incubate, with shaking for 1 hr. at room temperature.
14. Add 100 μl per well of Biosource Goat anti-rabbit IgG peroxidase conjugate (1:6000 dilution in ADB). Incubate, with shaking for 1 hr. at room temperature.
15. Wash as in step 10 and then with PBS to remove bubbles and excess TWEEN.
16. Add 100 μl of ABTS/H2O2 solution to each well.
17. Incubate, with shaking, for 10 to 20 minutes. Remove any bubbles.
18. Read assay on Dynatech MR7000 ELISA reader: test filter at 410 nM, reference filter at 630 nM.
For the compound `COc1ccc(-c2ccc3c(c2)NC(=O)/C3=C2/CCc3c2[nH]c(C)c3C(=O)N2CCC[C@H]2CN2CCCC2)cc1` [Example 23, 6-(4-Methoxy-phenyl)-3-[2-methyl-3-((S)-2-pyrrolidin-1-ylmethyl-pyrrolidine-1-carbonyl)-4,5-dihydro-1H-cyclopenta[b]pyrrol-(6Z)-ylidene]-1,3-dihydro-indol-2-one], the IC50 was found to be 230 nM. In the case of `CNS(=O)(=O)c1ccc2c(c1)/C(=C1\CCc3c1[nH]c(C)c3C(=O)NCC(O)CN1CCCC1)C(=O)N2` (centres unmarked) [Example 10, 2-Methyl-6-[5-methylsulfamoyl-2-oxo-1,2-dihydro-indol-(3Z)-ylidene]-1,4,5,6-tetrahydro-cyclopenta[b]pyrrole-3-carboxylic acid (2-hydroxy-3-pyrrolidin-1-yl-propyl)-amide], the IC50 was less than 18 nM. With `CCOC(=O)c1c(C)[nH]c2c1CC/C2=C1/C(=O)Nc2ccc(S(N)(=O)=O)cc21` [Example 14, 2-Methyl-6-[2-oxo-5-sulfamoyl-1,2-dihydro-indol-(3Z)-ylidene]-1,4,5,6-tetrahydro-cyclopenta[b]pyrrole-3-carboxylic acid ethyl ester] the figure was 100 nM; with `CNS(=O)(=O)c1ccc2c(c1)C(=C1CCCC1)C(=O)N2` [Example 15, 3-Cyclopentylidene-2-oxo-2,3-dihydro-1H-indole-5-sulfonic acid methylamide], greater than 20000 nM; with `CCOC(=O)c1c(C)[nH]c2c1CC/C2=C1/C(=O)Nc2ccc(S(=O)(=O)N(C)C)cc21` [Example 7, 6-[5-Dimethylsulfamoyl-2-oxo-1,2-dihydro-indol-(3Z)-ylidene]-2-methyl-1,4,5,6-tetrahydro-cyclopenta[b]pyrrole-3-carboxylic acid ethyl ester], greater than 20000 nM. Take `CCOC(=O)c1c(C)[nH]c2c1CC/C2=C1/C(=O)Nc2ccc(S(=O)(=O)NC(C)C)cc21` [Example 8, 6-[5-Isopropylsulfamoyl-2-oxo-1,2-dihydro-indol-(3Z)-ylidene]-2-methyl-1,4,5,6-tetrahydro-cyclopenta[b] pyrrole-3-carboxylic acid ethyl ester]: the IC50 is greater than 20000 nM. As to `CCOC(=O)c1c(C)[nH]c2c1CC/C2=C1/C(=O)Nc2ccc(S(=O)(=O)NC)cc21` [Example 3, 2-Methyl-6-[5-methylsulfamoyl-2-oxo-1,2-dihydro-indol-(3Z)-ylidene]-1,4,5,6-tetrahydro-cyclopenta[b]pyrrole-3-carboxylic acid ethyl ester], the half-inhibitory concentration (IC50) is 600 nM. As to `COc1ccccc1-c1ccc2c(c1)NC(=O)/C2=C1/CCc2c1[nH]c(C)c2C(=O)N1CCC[C@H]1CN1CCCC1` [Example 20], the IC50 was found to be 480 nM.

For the compound `CCOC(=O)c1c(C)[nH]c2c1CC/C2=C1/C(=O)Nc2ccc(S(=O)(=O)Cc3c(Cl)cccc3Cl)cc21` [Example 2, 6-[5-(2,6-Dichloro-phenylmethanesulfonyl)-2-oxo-1,2-dihydro-indol-(3Z)-ylidene]-2-methyl-1,4,5,6-tetrahydro-cyclopenta[b]pyrrole-3-carboxylic acid ethyl ester], the IC50 was found to be 2500 nM. Regarding `CNS(=O)(=O)c1ccc2c(c1)/C(=C1\CC(CC(=O)O)c3cc(OC)ccc31)C(=O)N2` (centres unmarked) [Example 17, {6-Methoxy-3-[5-methylsulfamoyl-2-oxo-1,2-dihydro-indol-(3Z)-ylidene]-indan-1-yl}-acetic acid], the IC50 stood at 40 nM.

In the case of `CNS(=O)(=O)c1ccc2c(c1)/C(=C1\CCc3c1[nH]c(C)c3C(=O)NCC(O)CNC1CC1)C(=O)N2` (centres unmarked) [Example 11, 2-Methyl-6-[5-methylsulfamoyl-2-oxo-1,2-dihydro-indol-(3Z)-ylidene]-1,4,5,6-tetrahydro-cyclopenta[b]pyrrole-3-carboxylic acid (3-cyclopropylamino-2-hydroxy-propyl)-amide], the IC50 turned out to be 20 nM. `CCOC(=O)c1c(C)[nH]c2c1CC/C2=C1/C(=O)Nc2ccc(S(=O)(=O)CC)cc21` [Example 9, 6-[5-Ethanesulfonyl-2-oxo-1,2-dihydro-indol-(3Z)-ylidene]-2-methyl-1,4,5,6-tetrahydro-cyclopenta[b]pyrrole-3-carboxylic acid ethyl ester]: the IC50 worked out at 530 nM. `CCOC(=O)c1c(C)[nH]c2c1CC/C2=C1/C(=O)Nc2ccccc21` [Example 1, 2-Methyl-6-[2-oxo-1,2-dihydro-indol-(3Z)-ylidene]-1,4,5,6-tetrahydro-cyclopenta[b]pyrrole-3-carboxylic acid ethyl ester]: the IC50 was found to be 79 nM. In the case of `CNS(=O)(=O)c1ccc2c(c1)/C(=C1\CCc3c1[nH]c(C)c3C(=O)O)C(=O)N2` [Example 5, 2-Methyl-6-[5-methylsulfamoyl-2-oxo-1,2-dihydro-indol-(3Z)-ylidene]-1,4,5,6-tetrahydro-cyclopenta[b]pyrrole-3-carboxylic acid], the IC50 worked out at 22 nM.

Regarding `CNS(=O)(=O)c1ccc2c(c1)/C(=C1\CCc3cc(C)[nH]c31)C(=O)N2` [Example 4, 3-[2-Methyl-4,5-dihydro-1H-cyclopenta[b]pyrrol-(6Z)-ylidene]-2-oxo-2,3-dihydro-1H-indole-5-sulfonic acid methylamide], the IC50 is 25 nM. Turning to `Cc1[nH]c2c(c1C(=O)N1CCC[C@H]1CN1CCCC1)CC/C2=C1/C(=O)Nc2ccc(F)cc21` [Example 18, 5-Fluoro-3-[2-methyl-3-((S)-2-pyrrolidin-1-ylmethyl-pyrrolidine-1-carbonyl)-4,5-dihydro-1H-cyclopenta[b]pyrrol-(6Z)-ylidene]-1,3-dihydro-indol-2-one], the IC50 is 80 nM. `CCOC(=O)c1c(C)[nH]c2c1CC/C2=C1/C(=O)Nc2ccc(S(C)(=O)=O)cc21` [Example 6, 6-[5-Methanesulfonyl-2-oxo-1,2-dihydro-indol-(3Z)-ylidene]-2-methyl-1,4,5,6-tetrahydro-cyclopenta[b]pyrrole-3-carboxylic acid ethyl ester]: the IC50 was found to be 14500 nM. With `CNS(=O)(=O)c1ccc2c(c1)/C(=C1\CCc3c1[nH]c(C)c3S(C)(=O)=O)C(=O)N2` [Example 16, 3-[3-Methanesulfonyl-2-methyl-4,5-dihydro-1H-cyclopenta[b]pyrrol-(6Z)-ylidene]-2-oxo-2,3-dihydro-1H-indole-5-sulfonic acid methylamide], the IC50 was 15 nM.

On to `CNS(=O)(=O)c1ccc2c(c1)/C(=C1\CCc3c1[nH]c(C)c3C(=O)N1CCCC1CN1CCCC1)C(=O)N2` (stereo in doubt) [Example 13, 3-[2-Methyl-3-((R)-2-pyrrolidin-1-ylmethyl-pyrrolidine-1-carbonyl)-4,5-dihydro-1H-cyclopenta[b]pyrrol-(6Z)-ylidene]-2-oxo-2,3-dihydro-1H-indole-5-sulfonic acid methylamide], for which the IC50 amounted to 15 nM. For `CNS(=O)(=O)c1ccc2c(c1)/C(=C1\CCc3c1[nH]c(C)c3C(=O)NCCN(C)C)C(=O)N2` [Example 12, 2-Methyl-6-[5-methylsulfamoyl-2-oxo-1,2-dihydro-indol-(3Z)-ylidene]-1,4,5,6-tetrahydro-cyclopenta[b]pyrrole-3-carboxylic acid (2-dimethylamino-ethyl)-amide] the value was 17 nM; for `COc1ccc2c(c1)NC(=O)/C2=C1/CCc2c1[nH]c(C)c2C(=O)N1CCC[C@H]1CN1CCCC1` [Example 19, 6-Methoxy-3-[2-methyl-3-((S)-2-pyrrolidin-1-ylmethyl-pyrrolidine-1-carbonyl)-4,5-dihydro-1H-cyclopenta[b]pyrrol-(6Z)-ylidene]-1,3-dihydro-indol-2-one], 210 nM; for `Cc1[nH]c2c(c1C(=O)N1CCC[C@H]1CN1CCCC1)CC/C2=C1/C(=O)Nc2c(Cl)cccc21` [Example 21, 7-Chloro-3-[2-methyl-3-((S)-2-pyrrolidin-1-ylmethyl-pyrrolidine-1-carbonyl)-4,5-dihydro-1H-cyclopenta[b]pyrrol-(6Z)-ylidene]-1,3-dihydro-indol-2-one], 1900 nM. Turning to `Cc1[nH]c2c(c1C(=O)N1CCC[C@H]1CN1CCCC1)CC/C2=C1/C(=O)Nc2ncccc21` [Example 22, 3-[2-Methyl-3-((S)-2-pyrrolidin-1-ylmethyl-pyrrolidine-1-carbonyl)-4,5-dihydro-1H-cyclopenta[b]pyrrol-(6Z)-ylidene]-1,3-dihydro-pyrrolo[2,3-b]pyridin-2-one], the IC50 came out at 2070 nM.
